The text below walks through data of US20030104089A1, “Minari extract for preventing the induction and metastasis of cancer by carcinogens contained in cigarette smoke, fermented foods or alcoholic drinks” (priority 2000, published 2003).

The test system of data set [1] is PCNA (proliferative cell nuclear antigen). Briefly: PCNA expression in lung tissue of NNK-treated A/J mice. The note with it: single i.p. NNK 4 mg, normal feed, 4 months, compared to water-only-receiving group. Type of data set: in vivo. As for the experimental part: The NNK group received a single administration of 4 mg of NNK. The group receiving NNK-Minari received a single administration of NNK and thereafter a feed to which Minari extract was added at a 1.25% (w/w) concentration. The other group received a normal feed. All the groups were allowed take, ad lib., their feeds for 4 months.
A/J mice were divided into three experimental groups: a single intraperitoneal water administration-receiving (+normal feed) group; a single intraperitoneal NNK (4 mg) administration-receiving (+normal feed) group; and a single intraperitoneal NNK administration-receiving (+feed to which Minari extract is added at a concentration of 1.25%) group. Four months later, the expression level of PCNA in each experimental group was measured.

For data set [2] the following is noted: humans, calculated; cited from earlier work.

With `CN(CCCC(=O)c1cccnc1)N=O` [NNK, {(4-N-methyl-N-nitrosoamino)-1-(3-pyridyl)-1-butanone}], the “expression level of PCNA” value in data set [1] is given as “significantly increased”.

As for `CCOC(N)=O` [urethane, ethylcarbamate], in data set [2], the “virtually safe dose (VSD) for liver cancer” value is 7.2×10^−5 mg/kg body weight and the “virtually safe dose (VSD) for lung cancer” value is reported as 1.8×10^−4 mg/kg body weight.
